Experimental data taken from BindingDB's records for doi:10.7270/Q2154FH8 (Burnham Center For Chemical Genomics, 2010).

molecular target: Intestinal-type alkaline phosphatase (Homo sapiens, UniProt P09923); test: inhibition of human intestinal alkaline phosphatase – biochemical, luminescent, uHTS hits, set 2, dose response (AID 488793)
Sequence (P09923 whole entry): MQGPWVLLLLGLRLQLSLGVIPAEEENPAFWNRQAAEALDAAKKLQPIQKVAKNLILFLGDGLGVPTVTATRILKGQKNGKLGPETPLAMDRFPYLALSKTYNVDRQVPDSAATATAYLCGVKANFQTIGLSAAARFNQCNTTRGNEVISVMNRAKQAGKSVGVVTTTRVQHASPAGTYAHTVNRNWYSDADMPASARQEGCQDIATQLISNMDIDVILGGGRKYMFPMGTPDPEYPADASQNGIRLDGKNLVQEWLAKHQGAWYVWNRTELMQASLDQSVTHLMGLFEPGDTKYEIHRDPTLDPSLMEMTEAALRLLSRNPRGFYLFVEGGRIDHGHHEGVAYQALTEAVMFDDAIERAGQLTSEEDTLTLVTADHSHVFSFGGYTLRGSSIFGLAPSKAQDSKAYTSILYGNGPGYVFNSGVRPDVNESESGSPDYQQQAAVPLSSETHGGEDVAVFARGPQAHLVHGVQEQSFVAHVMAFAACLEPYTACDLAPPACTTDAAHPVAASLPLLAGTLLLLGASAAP

IC50	SMILES
77.3 µM	CC(N=Nc1ccccc1[N+](=O)[O-])c1ccc([N+](=O)[O-])cc1 (centres undefined)
35.8 µM	CCOC1=CC(=Cc2c(C)[nH]oc2=O)C=C(Br)C1=O [4-[(Z)-(3-bromo-5-ethoxy-4-oxo-1-cyclohexa-2,5-dienylidene)methyl]-3-methyl-2H-isoxazol-5-one]
39.4 µM	C=c1[nH]n(Cc2ccccc2)c(=O)c1=Cc1ccc(N(C)C)cc1 [(4Z)-4-[[4-(dimethylamino)phenyl]methylidene]-5-methyl-2-(phenylmethyl)-3-pyrazolone]
0.891 µM	O=C(O)[C@H]1O[C@@H](Oc2c(-c3ccc(O)c(O)c3)oc3cc(O)cc(=O)c-3c2O)[C@H](O)[C@@H](O)[C@@H]1O [quercetin glucuronide]
